# According to patent US20110218143A1, “COMPOSITIONS AND METHODS FOR TISSUE REPAIR” (UNIVERSITY OF FLORIDA RESEARCH FOUNDATION, priority 2007, published 2011):
# Assays:
# [1] = tested on: stem cell populations in bone marrow (cd34+, cd45+, Sca-1+ cells); test: FACS of cells expressing stem cell markers CD34, CD45, Sca-1 in bone marrow samples; assay type: in vivo, C57BL6/J mice
# Procedure: (§1) Mice received either a placebo (PBS) or oridonin (3.0 mg/kg) by intraperitoneal injection.
# [2] = tested on: stem cell populations in blood (cd34+, cd45+, Sca-1+ cells); test: FACS of cells expressing stem cell markers CD34, CD45, Sca-1 in blood samples; assay type: in vivo, C57BL6/J mice
# Procedure: Mice received either a placebo or triptolide (400 μg/kg) by intraperitoneal injection.
# Celastrol analogs administered included dihydrocelastrol, dihydrocelastrol diacetate, and pristimerol (dihydropristimerin). Mice received either a placebo or a celastrol analog (3.0 mg/kg) by intraperitoneal injection.
# as §1
# mice = settings: mouse, in vivo
# Procedure: Valproic acid was administered to C57BL6/J mice to determine the effect of valproic acid on stem cell populations in bone marrow and in blood. Mice received either a placebo or valproic acid (200 mg/kg) by intraperitoneal injection. […] Bone marrow samples were taken from both groups of mice at 24 hours after administration of the placebo or valproic acid. Blood samples were taken from both groups of mice at 72 hours after administration of the placebo or valproic acid. The bone marrow samples and blood samples were analyzed by FACS for cells expressing stem cell markers. To observe the effect of treatment with valproic acid, cells expressing the stem cell markers CD34, CD45, and Sca-1 in the bone marrow and blood samples, were quantitated as a percentage of the total populations in their respective samples (i.e., in the bone marrow sample and in the blood sample, respectively).
# [3] = tested on: stem cell populations in blood (cd34+, cd45+, Sca-1+ cells); test: FACS of cells expressing stem cell markers CD34, CD45, Sca-1 in blood samples; assay type: in vivo, C57BL6/J mice; settings: valproic acid 200 mg/kg i.p.; 72 hours post treatment
# [4] = celastrol analog 3.0 mg/kg i.p., 24 hours post treatment
# [5] = celastrol analog 3.0 mg/kg i.p., 24 hours post treatment (so in the source)
# [6] = triptolide 400 μg/kg i.p., 24 hours post treatment
# [7] = triptolide 400 μg/kg i.p., 48 hours post treatment
# [8] = triptolide 400 μg/kg i.p., 72 hours post treatment
# [9] = valproic acid 200 mg/kg i.p., 24 hours post treatment
# [10] = valproic acid 200 mg/kg i.p., 72 hours post treatment
compound,measurement,setting,value
COC(=O)[C@]1(C)CC[C@]2(C)CC[C@]3(C)C4=CCc5c(cc(O)c(O)c5C)[C@]4(C)CC[C@@]3(C)[C@@H]2C1 [pristimerol],"Sca-1+ cells, percent of the population of bone marrow cells",[1]; [4],about 0.28%
same,"cd34+ cells, percent of the population of bone marrow cells",[1]; [4],about 0.28%
same,"cd45+ cells, percent of the population of bone marrow cells",[1]; [4],about 0.16%
same,fold increase of percentage of Sca-1+ cells in bone marrow over control,[1]; [4],4-5 fold
same,fold increase of percentage of cd34+ cells in bone marrow over control,[1]; [4],greater than 4 fold
same,fold increase of percentage of cd45+ cells in bone marrow over control,[1]; [4],greater than 5 fold
same,"Sca-1+ cells, percent of the population of blood cells",[2]; [5],about 0.25%
same,"cd34+ cells, percent of the population of blood cells",[2]; [5],about 0.4%
same,"cd45+ cells, percent of the population of blood cells",[2]; [5],about 0.06%
same,fold increase of percentage of Sca-1+ cells in blood over control,[2]; [5],~6 fold
same,fold increase of percentage of cd34+ cells in blood over control,[2]; [5],~3 fold
same,fold increase of percentage of cd45+ cells in blood over control,[2]; [5],~3 fold
CC(C)[C@]12O[C@H]1[C@@H]1O[C@]13[C@]1(O[C@H]1C[C@H]1C4=C(CC[C@@]13C)C(=O)OC4)[C@@H]2O [triptolide],"cd34+ cells, percent of the population of bone marrow cells",[1]; [6],~0.8%
same,fold increase in the proportion of Sca-1 stem cells in bone marrow vs untreated mice,[1]; [6],approximately 15 fold
same,fold increase of percentage of cd34+ cells in bone marrow over control,[1]; [6],~16 fold
same,fold increase of percentage of cd45+ cells in bone marrow vs untreated control,[1]; [6],about 3 fold
same,"sca-1+ stem cells, percent of bone marrow cell population",[1]; [6],0.75%
same,"cd34+ cells, percent of bone marrow cells",[1]; [7],0.3%
same,"cd45+ cells, percent in bone marrow",[1]; [7],about 0.07%
same,fold increase of percentage of cd34+ cells in bone marrow compared to control mice,[1]; [7],6 fold
same,"sca-1+ cells, percent of bone marrow cell population",[1]; [7],0.25%
same,"CD34 cells, percent in bone marrow",[1]; [8],0.65%
same,"Sca-1+ cells, percent in bone marrow",[1]; [8],about 0.5%
same,"cd45+ cells, percent in bone marrow",[1]; [8],~0.12%
same,"CD34-expressing cells, percent of the population of blood cells",[2]; [6],~1%
same,"Sca-1+ cells, percent of the population of blood cells",[2]; [6],~1%
same,"Sca-1+ cells, percent of cells in blood",[2]; [7],~2%
same,"cd34+ cells, percent of cells in blood",[2]; [7],~2%
same,"cd45+ cells, percent of the cells in blood",[2]; [7],about 0.2%
same,"Sca-1+ cells, percent of cells in blood",[2]; [8],~3%
same,"cd34+ cells, percent of cells in blood",[2]; [8],about 3%
CCCC(CCC)C(=O)O [valproic acid],"CD34 cells, percent of the population of bone marrow cells",[1]; [9],about 0.2%
same,"Sca-1+ cells, percent of the population of bone marrow cells",[1]; [9],about 0.18%
same,"cd45+ cells, percent of the population of bone marrow cells",[1]; [9],about 0.08%
same,fold increase of percentage of Sca-1+ cells in bone marrow over control,[1]; [9],~6 fold
same,fold increase of percentage of cd34+ cells in bone marrow over control,[1]; [9],≥ 4 fold
same,fold increase of percentage of cd45+ cells in bone marrow over control,[1]; [9],≥ 3 fold
same,toxicity in mice,mice,not toxic
same,fold increase of percentage of Sca-1+ cells in blood over control,[3],~3 fold
same,fold increase of percentage of cd45+ cells in blood over control,[3],~4 fold
same,"Sca-1+ cells, percent of the population of blood cells",[2]; [10],less than 0.4%
same,"cd34+ cells, percent of the population of blood cells",[2]; [10],greater than 0.4%
same,"cd45+ cells, percent of the population of blood cells",[2]; [10],less than 0.2%
same,fold increase of percentage of cd34+ cells in blood over control,[2]; [10],~2.6 fold
dihydrocelastrol diacetate,"Sca-1+ cells, percent of the population of bone marrow cells",[1]; [4],about 0.17%
same,"cd34+ cells, percent of the population of bone marrow cells",[1]; [4],0.15%
same,change of percentage of cd45+ cells in bone marrow compared to untreated control,[1]; [4],decrease
same,fold increase of percentage of Sca-1+ cells in bone marrow over control,[1]; [4],~3 fold
same,fold increase of percentage of cd34+ cells in bone marrow over control,[1]; [4],~3 fold
same,"Sca-1+ cells, percent of the population of blood cells",[2]; [5],about 1.4%
same,"cd34+ cells, percent of the population of blood cells",[2]; [5],1.5%
same,"cd45+ cells, percent of the population of blood cells",[2]; [5],about 0.4%
same,fold increase of percentage of Sca-1+ cells in blood over control,[2]; [5],~36 fold
same,fold increase of percentage of cd34+ cells in blood over control,[2]; [5],~10 fold
same,fold increase of percentage of cd45+ cells in blood over control,[2]; [5],~20 fold
